Laboratory results as given in patent publication US20240218022A1, “ANTI-VISTA MACROCYCLIC PEPTIDES AND COMPOSITIONS” (BRISTOL-MYERS SQUIBB COMPANY, priority 2022, published 2024).
pIC50: −log10 of the molar value. Like-named read-outs stand apart in the source and are kept apart here. Starred links: 1 amine or outer side, 2 acyl side, 3 side chain; linkers in the order of their positions; H or OH if unused. Positions of bridges follow the written chain, without caps; N, C: chain ends. Non-standard residues stand in square brackets, D forms with d. Residues, ends and D or L forms follow the SMILES beside them. γGlu = O=C(O)[C@H](CCC(=O)[*:2])N[*:1]; 2Nal = N[C@@H](Cc1ccc2ccccc2c1)C(=O)O; βAsp = O=C(O)[C@H](CC(=O)[*:2])N[*:1]; NMeF = CN[C@@H](Cc1ccccc1)C(=O)O; 4Pal = N[C@@H](Cc1ccncc1)C(=O)O; Ahp(2) = CCCCC[C@H](N)C(=O)O; NMeNle = CCCC[C@H](NC)C(=O)O; Tle = CC(C)(C)[C@H](N)C(=O)O; NMeS = CN[C@@H](CO)C(=O)O; NHexGly = CCCCCCNCC(=O)O; Nle = CCCC[C@H](N)C(=O)O; Aun = NCCCCCCCCCCC(=O)O; Dab = NCC[C@H](N)C(=O)O; AEEA = NCCOCCOCC(=O)O

Target: T1, mouse VISTA (mVISTA) (Mus musculus, UniProt Q9D659)
T1 construct: expressed in transfected cells; host or cells: Human embryonic kidney 293T cells
T1 sequence (Q9D659 33-308): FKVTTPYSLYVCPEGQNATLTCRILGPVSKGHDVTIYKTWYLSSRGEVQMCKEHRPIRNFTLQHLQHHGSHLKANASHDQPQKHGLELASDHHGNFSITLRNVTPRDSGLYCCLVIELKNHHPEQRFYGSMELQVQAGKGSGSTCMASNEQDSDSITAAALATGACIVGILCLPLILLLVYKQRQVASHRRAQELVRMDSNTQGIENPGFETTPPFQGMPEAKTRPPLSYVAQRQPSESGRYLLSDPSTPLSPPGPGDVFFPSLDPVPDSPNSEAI
Experiment: Cell-Based Binding High-Content Assay For mVISTA (HC CBA mVISTA)
Outline: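 Read-out: Alexa 647–streptavidin signal imaged on fixed, Hoechst-stained mVISTA-293T cells, with IC50 taken from a four-parameter logistic curve. Compounds competed with 2 nM biotinylated peptide for 30 min at room temperature, tested under both no-wash and wash (1 h compound, media exchange, 1 h) formats.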

[1] = cell-based binding high-content assay, mVISTA, read-out: HC CBA miPr ISTA IC50

Structure (SMILES) | pIC50 (read-out: HC CBA mVISTA IC50) | also measured
CCCCCCN1CC(=O)N[C@@H](Cc2ccc(O)cc2)C(=O)N[C@@H](CC(C)C)C(=O)N[C@@H](CC(N)=O)C(=O)N[C@@H](CCCNC(=N)N)C(=O)N(C)[C@@H](CCCC)C(=O)N[C@@H](CCCCC)C(=O)N2CCC[C@H]2C(=O)N[C@@H](C(C)(C)C)C(=O)N[C@@H](CC(=O)O)C(=O)N[C@H](C(=O)N[C@@H](CC(=O)NCCOCCOCC(=O)N[C@@H](CCN)C(=O)NCCOCCOCC(=O)NCCCCCCCCCCC(=O)O)C(=O)O)CSCC(=O)N[C@@H](Cc2ccccc2)C(=O)N[C@@H](Cc2ccc(O)cc2)C(=O)N[C@@H](CC(=O)O)C1=O [compound 2329] ({CH2CO}-FYD[NHexGly]YLNR[NMeNle][Ahp(2)]P[Tle]DC[βAsp][AEEA][Dab][AEEA][Aun]-OH; thioether N-14) | – | pIC50 (cell-based binding high-content assay, read-out: HC CBA mVISTA IC50): 7.65
CCCCCCN1CC(=O)N[C@@H](Cc2ccc(O)cc2)C(=O)N[C@@H](CCCC)C(=O)NCC(=O)N[C@@H](CCCNC(=N)N)C(=O)N[C@@H](CC(C)C)C(=O)N[C@@H](CCCCC)C(=O)N2CCC[C@H]2C(=O)N[C@@H](C(C)C)C(=O)N[C@@H](CC(=O)O)C(=O)N[C@H](C(=O)NCC(=O)O)CSCC(=O)N[C@@H](Cc2ccccc2)C(=O)N[C@@H](Cc2ccc(O)cc2)C(=O)N[C@@H](CC(=O)O)C1=O [Example 1009] ({CH2CO}-FYD[NHexGly]Y[Nle]GRL[Ahp(2)]PVDCG-OH; thioether N-14) | – | pIC50 (293T cells expressing mouse VISTA, competition with biotinylated peptide (2 nM), read-out: HC CBA mVISTA IC50): 8.10
CCCCCCN1CC(=O)N[C@@H](Cc2ccc(O)cc2)C(=O)N[C@@H](CC(C)C)C(=O)N[C@@H](CC(N)=O)C(=O)N[C@@H](CCCNC(=N)N)C(=O)N(C)[C@@H](CO)C(=O)N[C@@H](CCCCC)C(=O)N2CCC[C@H]2C(=O)N[C@@H](C(C)(C)C)C(=O)N[C@@H](CO)C(=O)N[C@H](C(=O)N[C@@H](CC(=O)NCCOCCOCC(=O)N[C@@H](CC(=O)O)C(=O)NCCOCCOCC(=O)NCCCCCCCCCCC(=O)O)C(=O)O)CSCC(=O)N[C@@H](Cc2ccccc2)C(=O)N[C@@H](Cc2ccc(O)cc2)C(=O)N[C@@H](CC(=O)O)C1=O [compound 2033] ({CH2CO}-FYD[NHexGly]YLNR[NMeS][Ahp(2)]P[Tle]SC[βAsp][AEEA]D[AEEA][Aun]-OH; thioether N-14) | – | pIC50 [1]: 7.74
CCCCCCN1CC(=O)N[C@@H](Cc2ccc(O)cc2)C(=O)N[C@@H](CCCC)C(=O)N[C@@H](CC(N)=O)C(=O)N[C@@H](CCCNC(=N)N)C(=O)N(C)[C@@H](Cc2ccccc2)C(=O)N[C@@H](CCCCC)C(=O)N2CCC[C@H]2C(=O)N[C@@H](C(C)C)C(=O)N[C@@H](CO)C(=O)N[C@H](C(=O)N[C@@H](CC(=O)NCCOCCOCC(=O)NCCCCCCCCCCC(=O)O)C(=O)O)CSCC(=O)N[C@@H](Cc2ccccc2)C(=O)N[C@@H](Cc2c[nH]c3ccccc23)C(=O)N[C@@H](CC(=O)O)C1=O [Example 2177] ({CH2CO}-FWD[NHexGly]Y[Nle]NR[NMeF][Ahp(2)]PVSC[βAsp][AEEA][Aun]-OH; thioether N-14) | 7.42 | –
CCCCCCN1CC(=O)N[C@@H](Cc2ccc(O)cc2)C(=O)N[C@@H](CCCC)C(=O)N[C@@H](CC(N)=O)C(=O)N[C@@H](CCCNC(=N)N)C(=O)N(C)[C@@H](CCCC)C(=O)N[C@@H](CCCCC)C(=O)N2CCC[C@H]2C(=O)N[C@@H](C(C)C)C(=O)N[C@@H](CC(=O)O)C(=O)N[C@H](C(=O)NCCOCCOCC(=O)N[C@@H](CC(=O)NCCOCCOCC(=O)NCCCCCCCCCCC(=O)O)C(=O)O)CSCC(=O)N[C@@H](Cc2ccc3ccccc3c2)C(=O)N[C@@H](Cc2c[nH]c3ccccc23)C(=O)N[C@@H](CC(=O)O)C1=O [Example 2200] ({CH2CO}-[2Nal]WD[NHexGly]Y[Nle]NR[NMeNle][Ahp(2)]PVDC[AEEA][βAsp][AEEA][Aun]-OH; thioether N-14) | 7.78 | –
CCCCCCN1CC(=O)N[C@@H](Cc2ccc(O)cc2)C(=O)N[C@@H](CCCC)C(=O)N[C@@H](CC(N)=O)C(=O)N[C@@H](CCCNC(=N)N)C(=O)N[C@@H](CC(C)C)C(=O)N[C@@H](CCCCC)C(=O)N2CCC[C@H]2C(=O)N[C@@H](C(C)C)C(=O)N[C@@H](CO)C(=O)N[C@H](C(=O)NCC(=O)NCCOCCOCC(=O)N[C@@H](CC(=O)O)C(=O)NCCOCCOCC(=O)NCCCCCCCCCCC(=O)O)CSCC(=O)N[C@@H](Cc2ccc3ccccc3c2)C(=O)N[C@@H](Cc2ccc(O)cc2)C(=O)N[C@@H](CC(=O)O)C1=O [compound 2007] ({CH2CO}-[2Nal]YD[NHexGly]Y[Nle]NRL[Ahp(2)]PVSCG[AEEA]D[AEEA][Aun]-OH; thioether N-14) | – | pIC50 [1]: 7.71
CCCCCCN1CC(=O)N[C@@H](Cc2ccc(O)cc2)C(=O)N[C@@H](CCCC)C(=O)N[C@@H](CC(=O)O)C(=O)N[C@@H](CCCNC(=N)N)C(=O)N[C@@H](CC(C)C)C(=O)N[C@@H](CCCCC)C(=O)N2CCC[C@H]2C(=O)N[C@@H](C(C)C)C(=O)N[C@@H](CC(=O)O)C(=O)N[C@H](C(=O)N[C@@H](CO)C(N)=O)CSCC(=O)N[C@@H](Cc2ccc3ccccc3c2)C(=O)N[C@@H](Cc2ccc(O)cc2)C(=O)N[C@@H](CC(=O)O)C1=O [Ex 1317] ({CH2CO}-[2Nal]YD[NHexGly]Y[Nle]DRL[Ahp(2)]PVDCS-NH2; thioether N-14) | – | pIC50 (cell-based binding high-content assay, mVISTA, the 16th table, read-out: HC CBA mVISTA IC50): 7.76
CCCCCCN1CC(=O)N[C@@H](Cc2ccc(O)cc2)C(=O)N[C@@H](CCCC)C(=O)NCC(=O)N[C@@H](CCCNC(=N)N)C(=O)N[C@@H](CC(C)C)C(=O)N[C@@H](CCCCC)C(=O)N2CCC[C@H]2C(=O)N[C@@H](C(C)C)C(=O)N[C@@H](CC(N)=O)C(=O)N[C@H](C(=O)N[C@@H](CCC(=O)NCCCCCCCCCCC(=O)O)C(=O)O)CSCC(=O)N[C@@H](Cc2ccccc2)C(=O)N[C@@H](Cc2ccc(O)cc2)C(=O)N[C@@H](CC(=O)O)C1=O [Example 2130] ({CH2CO}-FYD[NHexGly]Y[Nle]GRL[Ahp(2)]PVNC[γGlu][Aun]-OH; thioether N-14) | 7.43 | –

Further lines, with some results ahead:

pIC50 (read-out: HC CBA mVISTA IC50) | Structure (SMILES) | also measured
7.39 | CCCCCCN1CC(=O)N[C@@H](Cc2ccc(O)cc2)C(=O)N[C@@H](CCCC)C(=O)N[C@@H](CC(N)=O)C(=O)N[C@@H](CCCNC(=N)N)C(=O)N(C)[C@@H](CCCC)C(=O)N[C@@H](CCCCC)C(=O)N2CCC[C@H]2C(=O)N[C@@H](C(C)(C)C)C(=O)N[C@@H](CO)C(=O)N[C@H](C(=O)NCCOCCOCC(=O)N[C@@H](CCC(=O)NCCOCCOCC(=O)NCCCCCCCCCCC(=O)O)C(=O)O)CSCC(=O)N[C@@H](Cc2ccncc2)C(=O)N[C@@H](Cc2ccc(O)cc2)C(=O)N[C@@H](CC(=O)O)C1=O [compound 2257] ({CH2CO}-[4Pal]YD[NHexGly]Y[Nle]NR[NMeNle][Ahp(2)]P[Tle]SC[AEEA][γGlu][AEEA][Aun]-OH; thioether N-14) | –
7.55 | CCCCCCN1CC(=O)N[C@@H](Cc2ccc(O)cc2)C(=O)N[C@@H](CCCC)C(=O)N[C@@H](CC(N)=O)C(=O)N[C@@H](CCCNC(=N)N)C(=O)N[C@@H](CC(C)C)C(=O)N[C@@H](CCCCC)C(=O)N2CCC[C@H]2C(=O)N[C@@H](C(C)C)C(=O)N[C@@H](CCCNC(=N)N)C(=O)N[C@H](C(=O)NCC(=O)O)CSCC(=O)N[C@@H](Cc2ccccc2)C(=O)N[C@@H](Cc2c[nH]c3ccccc23)C(=O)N[C@@H](CC(=O)O)C1=O [Example 1360] ({CH2CO}-FWD[NHexGly]Y[Nle]NRL[Ahp(2)]PVRCG-OH; thioether N-14) | –
